The test has as its target T1, human PAD4 (Homo sapiens, UniProt Q9UM07).
T1 construct: human PAD4 (NM_012387), A2P663, was PCR amplified; His-SUMO (N, cleaved yes); made in house; host or cells: E. coli BL21(DE3)
The test can be described thus: In vitro PAD4 BAEE biochemical assay. The note with it: human PAD4, BAEE substrate; 5 nM PAD4, 2 mM calcium chloride, 3 mM BAEE; geometric mean of multiple experiments. The method, boiled down:
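Ammonia release from BAEE deimination monitored by o-phthalaldehyde amine coupling (1 h, 25 °C) after EDTA stop. Final conditions: 5 nM tag-free recombinant human PAD4 (E. coli), 2 mM CaCl2, 3 mM BAEE, pH 7.6 MOPS with DTT; 30 min compound preincubation, then 2 h reaction at 25 °C.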

Molecules are shown by their SMILES.

T1 sequence (Q9UM07 2-663): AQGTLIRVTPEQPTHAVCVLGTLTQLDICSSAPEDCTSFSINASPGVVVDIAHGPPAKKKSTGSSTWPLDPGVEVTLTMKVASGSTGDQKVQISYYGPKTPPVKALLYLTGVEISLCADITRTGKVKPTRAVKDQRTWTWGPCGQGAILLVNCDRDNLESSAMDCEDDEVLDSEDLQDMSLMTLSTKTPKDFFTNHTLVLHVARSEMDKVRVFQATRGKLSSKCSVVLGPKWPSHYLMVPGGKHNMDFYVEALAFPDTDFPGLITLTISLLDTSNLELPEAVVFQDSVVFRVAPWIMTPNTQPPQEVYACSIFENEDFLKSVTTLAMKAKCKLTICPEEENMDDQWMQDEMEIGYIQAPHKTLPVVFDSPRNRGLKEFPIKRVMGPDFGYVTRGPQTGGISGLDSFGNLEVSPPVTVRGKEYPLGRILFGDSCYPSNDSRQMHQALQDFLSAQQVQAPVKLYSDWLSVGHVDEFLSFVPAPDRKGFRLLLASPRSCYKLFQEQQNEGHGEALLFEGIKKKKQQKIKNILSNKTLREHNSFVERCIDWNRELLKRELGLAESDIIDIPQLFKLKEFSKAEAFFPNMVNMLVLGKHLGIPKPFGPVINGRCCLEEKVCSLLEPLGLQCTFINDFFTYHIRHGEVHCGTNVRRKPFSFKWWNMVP

For orientation: IC50 means the midpoint of a concentration-inhibition curve. Regarding `COc1cc(C(=O)N2[C@H]3CC[C@@H]2[C@H](N)C3)cc2nc(-c3cc4ccc(N(C(F)F)S(C)(=O)=O)nc4n3CC3CC3)c(C3CC3)n12` [Example 385, ~{N}-[2-[7-[(1~{R},2~{R}, 4~{S})-2-amino-7-azabicyclo[2.2.1]heptane-7-carbonyl]-3-cyclopropyl-5-methoxyimidazo[1,2-a]pyridin-2-yl]-1-(cyclopropylmethyl)pyrrolo [2,3-b]pyridin-6-yl]-~{N}-(difluoromethyl) methanesulfonamide], the IC50 was 156 nM. The result for `CS(=O)(=O)N(c1ccc2cc(-c3nc4cc(C(=O)N5[C@H]6CC[C@@H]5[C@H](N)C6)ccn4c3C3CC3)n(CC3CC3)c2n1)C(F)F` [Example 386, ~{N}-[2-[7-[(1~{R},2~{R}, 4~{S})-2-amino-7-azabicyclo[2.2.1]heptane-7-carbonyl]-3-cyclopropylimidazo [1,2-a]pyridin-2-yl]-1-(cyclopropylmethyl)pyrrolo [2,3-b]pyridin-6-yl]-~{N}-(difluoromethyl) methanesulfonamide] reads 126 nM. Consider `CSc1cc(C(=O)N2CCC[C@@H](N)C2)cc2nc(-c3cc4ccc(N(C(F)F)S(C)(=O)=O)nc4n3CC3CC3)c(C)n12` [Example 387, ~{N}-[2-[7-[(3~{R})-3-aminopiperidine-1-carbonyl]-3-methyl-5-methylsulfanylimidazo[1,2-a]pyridin-2-yl]-1-(cyclopropylmethyl)pyrrolo [2,3-b]pyridin-6-yl]-~{N}-(difluoromethyl) methanesulfonamide], for which the 50% inhibitory concentration (IC50) is 779 nM. The result for `COc1cc(C(=O)N2CCC[C@@H](N)C2)cc2nc(-c3cc4ccc(N(C(F)F)S(C)(=O)=O)nc4n3CC3CC3)c(C)n12` [Example 388, ~{N}-[2-[7-[(3~{R})-3-aminopiperidine-1-carbonyl]-5-methoxy-3-methylimidazo [1,2-a]pyridin-2-yl]-1-(cyclopropylmethyl)pyrrolo [2,3-b]pyridin-6-yl]-~{N}-(difluoromethyl) methanesulfonamide] reads 95.3 nM; that for `COc1cc(C(=O)N2[C@H]3CC[C@@H]2[C@H](N)C3)cc2nc(-c3cc4ccc(N(C(F)F)S(C)(=O)=O)nc4n3CC3CC3)c(C)n12` [Example 389, N-(2-(7-((1R,2R,4S)-2-amino-7-azabicyclo[2.2.1]heptane-7-carbonyl)-5-methoxy-3-methylimidazo[1,2-a]pyridin-2-yl)-1-(cyclopropylmethyl)-1H-pyrrolo[2,3-b]pyridin-6-yl)-N-(difluoromethyl)methanesulfonamide], 84.8 nM; that for `C=CCN[C@@H]1CC[C@@H]2CC[C@H]1N2C(=O)c1cc(OC)n2c(C)c(-c3cc4ccc(N(C(F)F)S(C)(=O)=O)nc4n3CC3CC3)nc2c1` [Example 390, ~{N}-[1-(cyclopropylmethyl)-2-[5-methoxy-3-methyl-7-[(1~{R},2~{R},5~{R})-2-(prop-2-enylamino)-8-azabicyclo[3.2.1]octane-8-carbonyl]imidazo[1,2-a]pyridin-2-yl]pyrrolo [2,3-b]pyridin-6-yl]-~{N}-(difluoromethyl) methanesulfonamide], 3790 nM. Take `COc1cc(C(=O)N2CCC[C@@H](N)C2)cc2nc(-c3cc4ccc(N(C(F)F)S(C)(=O)=O)nc4n3CC3CC3)c(C3CC3)n12` [Example 391, ~{N}-[2-[7-[(3~{R})-3-aminopiperidine-1-carbonyl]-3-cyclopropyl-5-methoxyimidazo [1,2-a]pyridin-2-yl]-1-(cyclopropylmethyl)pyrrolo [2,3-b]pyridin-6-yl]-~{N}-(difluoromethyl) methanesulfonamide]: the IC50 was 104 nM. `CS(=O)(=O)N(c1ccc2cc(-c3nc4cc(C(=O)N5CCC[C@@H](N)C5)c(F)cn4c3C3CC3)n(CC3CC3)c2n1)C(F)F` [Example 392, ~{N}-[2-[7-[(3~{R})-3-aminopiperidine-1-carbonyl]-3-cyclopropyl-6-fluoroimidazo [1,2-a]pyridin-2-yl]-1-(cyclopropylmethyl)pyrrolo [2,3-b]pyridin-6-yl]-~{N}-(difluoromethyl) methanesulfonamide]: the IC50 turned out to be 148 nM.

With `CS(=O)(=O)N(c1ccc2cc(-c3nc4cc(C(=O)N5CC[C@@H](N)C5)ccn4c3C3CC3)n(CC3CC3)c2n1)C(F)F` [Example 393, ~{N}-[2-[7-[(3~{R})-3-aminopyrrolidine-1-carbonyl]-3-cyclopropylimidazo[1,2-a]pyridin-2-yl]-1-(cyclopropylmethyl)pyrrolo [2,3-b]pyridin-6-yl]-~{N}-(difluoromethyl) methanesulfonamide], the IC50 is 2010 nM. Turning to `CS(=O)(=O)N(c1ccc2cc(-c3nc4cc(C(=O)N5CC[C@@H](F)[C@@H](N)C5)ccn4c3C3CC3)n(CC3CC3)c2n1)C(F)F` [Example 394, ~{N}-[2-[7-[(3~{S},4~{R})-3-amino-4-fluoropiperidine-1-carbonyl]-3-cyclopropylimidazo[1,2-a]pyridin-2-yl]-1-(cyclopropylmethyl)pyrrolo [2,3-b]pyridin-6-yl]-~{N}-(difluoromethyl) methanesulfonamide], the half-inhibitory concentration (IC50) was found to be 1070 nM. Take `CS(=O)(=O)N(c1ccc2cc(-c3nc4cc(C(=O)N5CC[C@@H](O)[C@@H](N)C5)ccn4c3C3CC3)n(CC3CC3)c2n1)C(F)F` [Example 395, ~{N}-[2-[7-[(3~{S},4~{R})-3-amino-4-hydroxypiperidine-1-carbonyl]-3-cyclopropylimidazo[1,2-a]pyridin-2-yl]-1-(cyclopropylmethyl)pyrrolo [2,3-b]pyridin-6-yl]-~{N}-(difluoromethyl) methanesulfonamide]: the concentration for half-maximal inhibition (IC50) was found to be 259 nM. For `CS(=O)(=O)N(c1ccc2cc(-c3nc4cc(C(=O)N5C[C@H]6CC[C@@H]5[C@@H]6N)ccn4c3C3CC3)n(CC3CC3)c2n1)C(F)F` [Example 396, N-[2-[7-[(1R,4R,7R)-7-amino-2-azabicyclo [2.2.1]heptane-2-carbonyl]-3-cyclopropyl-imidazo[1,2-a]pyridin-2-yl]-1-(cyclopropylmethyl)pyrrolo [2,3-b]pyridin-6-yl]-N-(difluoromethyl) methanesulfonamide] the value was 194 nM; for `CS(=O)(=O)N(c1ccc2cc(-c3nc4cc(C(=O)N5[C@@H]6CC[C@@H](N)[C@H]5CC6)ccn4c3C3CC3)n(CC3CC3)c2n1)C(F)F` [Example 397], 74.8 nM; for `CS(=O)(=O)N(c1ccc2cc(-c3nc4cc(C(=O)N5CCC[C@@H](N)C5)ccn4c3C3CC3)n(CC3CC3)c2n1)C(F)F` [Example 398, ~{N}-[2-[7-[(3~{R})-3-aminopiperidine-1-carbonyl]-3-cyclopropylimidazo[1,2-a]pyridin-2-yl]-1-(cyclopropylmethyl)pyrrolo [2,3-b]pyridin-6-yl]-~{N}-(difluoromethyl) methanesulfonamide], 60.7 nM. In the case of `CCc1c(-c2cc3ccc(N(C(F)F)S(C)(=O)=O)nc3n2CC2CC2)nc2cc(C(=O)N3CCC[C@@H](N)C3)cc(OC)n12` [Example 399, ~{N}-[2-[7-[(3~{R})-3-aminopiperidine-1-carbonyl]-3-ethyl-5-methoxyimidazo[1,2-a]pyridin-2-yl]-1-(cyclopropylmethyl)pyrrolo [2,3-b]pyridin-6-yl]-~{N}-(difluoromethyl) methanesulfonamide], the IC50 came out at 285 nM. With `Cc1c(-c2cc3ccc(N(C(F)F)S(C)(=O)=O)nc3n2CC2CC2)nc2cc(C(=O)N3[C@@H]4CC[C@@H](N)[C@H]3CC4)ccn12` [Example 401, ~{N}-[2-[7-[(1~{R},2~{R}, 5~{R})-2-amino-8-azabicyclo[3.2.1]octane-8-carbonyl]-3-methylimidazo [1,2-a]pyridin-2-yl]-1-(cyclopropylmethyl)pyrrolo [2,3-b]pyridin-6-yl]-~{N}-(difluoromethyl) methanesulfonamide], the IC50 amounted to 136 nM. Take `Cc1c(-c2cc3ccc(N(C(F)F)S(C)(=O)=O)nc3n2CC2CC2)nc2cc(C(=O)N3C[C@H](N)CC[C@@H]3C)ccn12` [Example 402, ~{N}-[2-[7-[(2~{S},5~{R})-5-amino-2-methylpiperidine-1-carbonyl]-3-methylimidazo[1,2-a]pyridin-2-yl]-1-(cyclopropylmethyl)pyrrolo [2,3-b]pyridin-6-yl]-~{N}-(difluoromethyl) methanesulfonamide]: the IC50 came out at 203 nM. For `COc1cc(C(=O)N2[C@@H]3CC[C@@H](N)[C@H]2CC3)cc2nc(-c3cc4ccc(N(C(F)F)S(C)(=O)=O)nc4n3CC3CC3)c(CC3CC3)n12` [Example 403, ~{N}-[2-[7-[(1~{R},2~{R}, 5~{R})-2-amino-8-azabicyclo[3.2.1]octane-8-carbonyl]-3-(cyclopropylmethyl)-5-methoxyimidazo [1,2-a]pyridin-2-yl]-1-(cyclopropylmethyl)pyrrolo [2,3-b]pyridin-6-yl]-~{N}-(difluoromethyl) methanesulfonamide] the value was 754 nM. For the compound `CCc1c(-c2cc3ccc(N(C(F)F)S(C)(=O)=O)nc3n2CC2CC2)nc2cc(C(=O)N3CC[C@H](O)[C@H](N)C3)cc(OC)n12` [Example 404, ~{N}-[2-[7-[(3~{R},4~{S})-3-amino-4-hydroxypiperidine-1-carbonyl]-3-ethyl-5-methoxyimidazo[1,2-a]pyridin-2-yl]-1-(cyclopropylmethyl)pyrrolo [2,3-b]pyridin-6-yl]-~{N}-(difluoromethyl) methanesulfonamide], the 50% inhibitory concentration (IC50) amounted to 10600 nM. Regarding `COc1cc(C(=O)N2C[C@H](N)CC[C@@H]2C)cc2nc(-c3cc4ccc(N(C(F)F)S(C)(=O)=O)nc4n3CC3CC3)c(CC3CC3)n12` [Example 405, ~{N}-[2-[7-[(2~{S},5~{R})-5-amino-2-methylpiperidine-1-carbonyl]-3-(cyclopropylmethyl)-5-methoxyimidazo[1,2-a]pyridin-2-yl]-1-(cyclopropylmethyl)pyrrolo [2,3-b]pyridin-6-yl]-~{N}-(difluoromethyl) methanesulfonamide], the IC50 is 589 nM.

(Values after patent publication US12240862B2, “Inhibitors of peptidylarginine deiminases” (Gilead Sciences, Inc., priority 2020, dated 2025).)
